Experimental findings from patent US20260007681A1, “INDOLE DERIVATIVES AS ESTROGEN RECEPTOR DEGRADERS” (REGENTS OF THE UNIVERSITY OF MICHIGAN, priority 2022, published 2026) are described below.

Chain of ER (P03372 whole entry): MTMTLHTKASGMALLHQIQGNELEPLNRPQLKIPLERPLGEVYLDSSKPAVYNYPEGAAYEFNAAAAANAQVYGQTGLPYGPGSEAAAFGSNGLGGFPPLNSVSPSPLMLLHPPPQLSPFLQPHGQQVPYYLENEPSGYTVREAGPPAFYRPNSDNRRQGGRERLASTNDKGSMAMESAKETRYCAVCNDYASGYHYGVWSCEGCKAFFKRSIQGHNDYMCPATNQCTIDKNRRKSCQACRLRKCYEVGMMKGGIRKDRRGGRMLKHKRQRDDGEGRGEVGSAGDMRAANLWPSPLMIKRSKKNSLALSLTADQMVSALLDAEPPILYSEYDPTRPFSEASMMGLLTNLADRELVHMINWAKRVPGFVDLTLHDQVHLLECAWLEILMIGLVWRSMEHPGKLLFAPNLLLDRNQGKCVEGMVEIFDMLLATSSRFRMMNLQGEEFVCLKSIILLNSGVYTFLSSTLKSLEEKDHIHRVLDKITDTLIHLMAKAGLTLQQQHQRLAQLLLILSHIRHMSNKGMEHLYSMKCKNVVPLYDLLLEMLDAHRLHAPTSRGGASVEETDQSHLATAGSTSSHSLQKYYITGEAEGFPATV

For the experiment, the target named is ER (Homo sapiens (Human), UniProt P03372). Kind of experiment: Western blot analysis (Compounds B1-B278). It counts as cell-based. The following applies: ER degradation by traditional Western blot; DC50 classes. The method, then:
Western Blot Analysis. The cells that are treated with the compounds are lysed in Radioimmunoprecipitation Assay Protein Lysis and Extraction Buffer (e.g., 25 mmol/L Tris.HCl, pH 7.6, 150 mmol/L NaCl, 1% Nonidet P-40, 1% sodium deoxycholate, and 0.1% sodium dodecyl sulfate) containing proteinase inhibitor cocktail. Equal amounts of total protein are electrophoresed through 10% SDS-polyacrylamide gels after determination of protein concentration by BCA assay. The separated protein bands are transferred onto PVDF membranes and blotted against different antibodies. The blots are scanned, and the band intensities are quantified (e.g., by using GelQuant.NET software provided by biochemlabsolutions.com). The relative mean intensity of target proteins is expressed after normalization to the intensity of glyceraldehyde-3-phosphate dehydrogenase bands.
Western Blot Analysis. Western blot analysis was performed essentially as described previously. The cells treated with indicated compounds were lysed in Radioimmunoprecipitation Assay Protein Lysis and Extraction Buffer (25 mmol/L Tris.HCl, pH 7.6, 150 mmol/L NaCl, 1% Nonidet P-40, 1% sodium deoxycholate, and 0.1% sodium dodecyl sulfate) containing proteinase inhibitor cocktail (Roche Diagnostics, Mannheim, Germany). Equal amounts of total protein were electrophoresed through 10% SDS-polyacrylamide gels after determination of protein concentration by BCA assay (Fisher Scientific, Pittsburgh, PA). The separated protein bands were transferred onto PVDF membranes (GE Healthcare Life Sciences, Marlborough, MA) and blotted against different antibodies, as indicated. The blots were scanned, and the band intensities were quantified using GelQuant.NET software provided by biochemlabsolutions.com. The relative mean intensity of target proteins was expressed after normalization to the intensity of glyceraldehyde-3-phosphate dehydrogenase bands.
(In general: In western blotting, separated proteins are transferred to a membrane and probed.)
As for `C[C@@H]1Cc2c([nH]c3ccccc23)[C@@H](c2c(F)cc(N3CCN(CCN4Cc5cc6c(cc5C4)C(=O)N(C4CCC(=O)NC4=O)C6)CC3)cc2F)N1CC(F)F` (stereo partly drawn) [Compound B5, 3-(6-(2-(4-(4-((1R,3R)-2-(2,2-difluoroethyl)-3-methyl-2,3,4,9-tetrahydro-1H-pyrido[3,4-b]indol-1-yl)-3,5-difluorophenyl)piperazin-1-yl)ethyl)-1-oxo-3,5,6,7-tetrahydropyrrolo[3,4-f]isoindol-2(1H)-yl)piperidine-2,6-dione], the “Traditional Western Degradation Potency” value was “B (“B”: 10-100 nM)”.

Take `C[C@@H]1Cc2c([nH]c3ccccc23)[C@@H](c2c(F)cc(N3CCC(N4CC(CC(=O)N5Cc6cc7c(cc6C5)C(=O)N(C5CCC(=O)NC5=O)C7=O)C4)CC3)cc2F)N1CC(F)F` (stereo partly drawn) [Compound B6, 6-(2-(1-(1-(4-((1R,3R)-2-(2,2-difluoroethyl)-3-methyl-2,3,4,9-tetrahydro-1H-pyrido[3,4-b]indol-1-yl)-3,5-difluorophenyl)piperidin-4-yl)azetidin-3-yl)acetyl)-2-(2,6-dioxopiperidin-3-yl)-6,7-dihydropyrrolo[3,4-f]isoindole-1,3(2H,5H)-dione]: the “Traditional Western Degradation Potency” value is reported as “C (“C”: >100 nM)”.

Regarding `C[C@@H]1Cc2c([nH]c3ccccc23)[C@@H](c2c(F)cc(N3CCC(N4CC(CC(=O)N5Cc6cc7c(cc6C5)C(=O)N(C5CCC(=O)NC5=O)C7)C4)CC3)cc2F)N1CC(F)F` (stereo partly drawn) [Compound B7, 3-(6-(2-(1-(1-(4-((1R,3R)-2-(2,2-difluoroethyl)-3-methyl-2,3,4,9-tetrahydro-1H-pyrido[3,4-b]indol-1-yl)-3,5-difluorophenyl)piperidin-4-yl)azetidin-3-yl)acetyl)-1-oxo-3,5,6,7-tetrahydropyrrolo[3,4-f]isoindol-2(1H)-yl)piperidine-2,6-dione], the “Traditional Western Degradation Potency” value is listed as “B (“B”: 10-100 nM)”.

For the compound `C[C@@H]1Cc2c([nH]c3ccccc23)[C@@H](c2c(F)cc(N3CC4(CN(CC(=O)N5Cc6cc7c(cc6C5)C(=O)N(C5CCC(=O)NC5=O)C7)C4)C3)cc2F)N1CC(F)F` (stereo partly drawn) [Compound B8, 3-(6-(2-(6-(4-((1R,3R)-2-(2,2-difluoroethyl)-3-methyl-2,3,4,9-tetrahydro-1H-pyrido[3,4-b]indol-1-yl)-3,5-difluorophenyl)-2,6-diazaspiro[3.3]heptan-2-yl)acetyl)-1-oxo-3,5,6,7-tetrahydropyrrolo[3,4-f]isoindol-2(1H)-yl)piperidine-2,6-dione], the “Traditional Western Degradation Potency” value was “A (“A”: <10 nM)”.

Take `C[C@@H]1Cc2c([nH]c3ccccc23)[C@@H](c2c(F)cc(N3CC4(CCN(C(=O)CN5Cc6cc7c(cc6C5)C(=O)N(C5CCC(=O)NC5=O)C7)C4)C3)cc2F)N1CC(F)F` (stereo partly drawn) [Compound B9, 3-(6-(2-(2-(4-((1R,3R)-2-(2,2-difluoroethyl)-3-methyl-2,3,4,9-tetrahydro-1H-pyrido[3,4-b]indol-1-yl)-3,5-difluorophenyl)-2,6-diazaspiro[3.4]octan-6-yl)-2-oxoethyl)-1-oxo-3,5,6,7-tetrahydropyrrolo[3,4-f]isoindol-2(1H)-yl)piperidine-2,6-dione]: the “Traditional Western Degradation Potency” value is “A (“A”: <10 nM)”.

Regarding `C[C@@H]1Cc2c([nH]c3ccccc23)[C@@H](c2c(F)cc(N3CCC4(CCN(C(=O)CN5Cc6cc7c(cc6C5)C(=O)N(C5CCC(=O)NC5=O)C7)C4)C3)cc2F)N1CC(F)F` (stereo partly drawn) [Compound B11, 3-(6-(2-(7-(4-((1R,3R)-2-(2,2-difluoroethyl)-3-methyl-2,3,4,9-tetrahydro-1H-pyrido[3,4-b]indol-1-yl)-3,5-difluorophenyl)-2,7-diazaspiro[4.4]nonan-2-yl)-2-oxoethyl)-1-oxo-3,5,6,7-tetrahydropyrrolo[3,4-f]isoindol-2(1H)-yl)piperidine-2,6-dione], the “Traditional Western Degradation Potency” value was “B (“B”: 10-100 nM)”.

Consider `C[C@@H]1Cc2c([nH]c3ccccc23)[C@@H](c2c(F)cc(N3CC4(CCCN(C(=O)CN5Cc6cc7c(cc6C5)C(=O)N(C5CCC(=O)NC5=O)C7)C4)C3)cc2F)N1CC(F)F` (stereo partly drawn) [Compound B12, 3-(6-(2-(2-(4-((1R,3R)-2-(2,2-difluoroethyl)-3-methyl-2,3,4,9-tetrahydro-1H-pyrido[3,4-b]indol-1-yl)-3,5-difluorophenyl)-2,6-diazaspiro[3.5]nonan-6-yl)-2-oxoethyl)-1-oxo-3,5,6,7-tetrahydropyrrolo[3,4-f]isoindol-2(1H)-yl)piperidine-2,6-dione], for which the “Traditional Western Degradation Potency” value is recorded as “C (“C”: >100 nM)”.

As to `C[C@@H]1Cc2c([nH]c3ccccc23)[C@@H](c2c(F)cc(N3CCCC4(CN(C(=O)CN5Cc6cc7c(cc6C5)C(=O)N(C5CCC(=O)NC5=O)C7)C4)C3)cc2F)N1CC(F)F` (stereo partly drawn) [Compound B13, 3-(6-(2-(6-(4-((1R,3R)-2-(2,2-difluoroethyl)-3-methyl-2,3,4,9-tetrahydro-1H-pyrido[3,4-b]indol-1-yl)-3,5-difluorophenyl)-2,6-diazaspiro[3.5]nonan-2-yl)-2-oxoethyl)-1-oxo-3,5,6,7-tetrahydropyrrolo[3,4-f]isoindol-2(1H)-yl)piperidine-2,6-dione], the “Traditional Western Degradation Potency” value was “B (“B”: 10-100 nM)”.

`C[C@@H]1Cc2c([nH]c3ccccc23)[C@@H](c2c(F)cc(N3CC4(CN(C(=O)CN5Cc6cc7c(cc6C5)C(=O)N(C5CCC(=O)NC5=O)C7)C4)C3)cc2F)N1CC(F)F` (stereo partly drawn) [Compound B14, 3-(6-(2-(6-(4-((1R,3R)-2-(2,2-difluoroethyl)-3-methyl-2,3,4,9-tetrahydro-1H-pyrido[3,4-b]indol-1-yl)-3,5-difluorophenyl)-2,6-diazaspiro[3.3]heptan-2-yl)-2-oxoethyl)-1-oxo-3,5,6,7-tetrahydropyrrolo[3,4-b]isoindol-2(1H)-yl)piperidine-2,6-dione]: the “Traditional Western Degradation Potency” value is on record as “A (“A”: <10 nM)”.

On to `C[C@@H]1Cc2c([nH]c3ccccc23)[C@@H](c2c(F)cc(N3CCC4(CN(C(=O)CN5Cc6cc7c(cc6C5)C(=O)N(C5CCC(=O)NC5=O)C7)C4)C3)cc2F)N1CC(F)F` (stereo partly drawn) [Compound B15, 3-(6-(2-(6-(4-((1R,3R)-2-(2,2-difluoroethyl)-3-methyl-2,3,4,9-tetrahydro-1H-pyrido[3,4-b]indol-1-yl)-3,5-difluorophenyl)-2,6-diazaspiro[3.4]octan-2-yl)-2-oxoethyl)-1-oxo-3,5,6,7-tetrahydropyrrolo[3,4-f]isoindol-2(1H)-yl)piperidine-2,6-dione], for which the “Traditional Western Degradation Potency” value is given as “A (“A”: <10 nM)”.

As to `C[C@@H]1Cc2c([nH]c3ccccc23)[C@@H](c2c(F)cc(N3CC4(CCN(CC(=O)N5Cc6cc7c(cc6C5)C(=O)N(C5CCC(=O)NC5=O)C7)C4)C3)cc2F)N1CC(F)F` (stereo partly drawn) [Compound B16, 3-(6-(2-(2-(4-((1R,3R)-2-(2,2-difluoroethyl)-3-methyl-2,3,4,9-tetrahydro-1H-pyrido[3,4-b]indol-1-yl)-3,5-difluorophenyl)-2,6-diazaspiro[3.4]octan-6-yl)acetyl)-1-oxo-3,5,6,7-tetrahydropyrrolo[3,4-f]isoindol-2(1H)-yl)piperidine-2,6-dione], the “Traditional Western Degradation Potency” value was “A (“A”: <10 nM)”.

Regarding `C[C@@H]1Cc2c([nH]c3ccccc23)[C@@H](c2c(F)cc(N3CC4(CCN(CC(=O)N5Cc6cc7c(cc6C5)C(=O)N(C5CCC(=O)NC5=O)C7=O)C4)C3)cc2F)N1CC(F)F` (stereo partly drawn) [Compound B17, 6-(2-(2-(4-((1R,3R)-2-(2,2-difluoroethyl)-3-methyl-2,3,4,9-tetrahydro-1H-pyrido[3,4-b]indol-1-yl)-3,5-difluorophenyl)-2,6-diazaspiro[3.4]octan-6-yl)acetyl)-2-(2,6-dioxopiperidin-3-yl)-6,7-dihydropyrrolo[3,4-f]isoindole-1,3(2H,5H)-dione], the “Traditional Western Degradation Potency” value was “B (“B”: 10-100 nM)”.

Regarding `C[C@@H]1Cc2c([nH]c3ccccc23)[C@@H](c2c(F)cc(N3CCC4(CCN(CC(=O)N5Cc6cc7c(cc6C5)C(=O)N(C5CCC(=O)NC5=O)C7=O)C4)C3)cc2F)N1CC(F)F` (stereo partly drawn) [Compound B19, 6-(2-(7-(4-((1R,3R)-2-(2,2-difluoroethyl)-3-methyl-2,3,4,9-tetrahydro-1H-pyrido[3,4-b]indol-1-yl)-3,5-difluorophenyl)-2,7-diazaspiro[4.4]nonan-2-yl)acetyl)-2-(2,6-dioxopiperidin-3-yl)-6,7-dihydropyrrolo[3,4-f]isoindole-1,3(2H,5H)-dione], the “Traditional Western Degradation Potency” value is on record as “C (“C”: >100 nM)”.

As for `C[C@@H]1Cc2c([nH]c3ccccc23)[C@@H](c2c(F)cc(N3CC4(CCN(C(=O)CN5Cc6cc7c(cc6C5)C(=O)N(C5CCC(=O)NC5=O)C7=O)C4)C3)cc2F)N1CC(F)F` (stereo partly drawn) [Compound B20, 6-(2-(2-(4-((1R,3R)-2-(2,2-difluoroethyl)-3-methyl-2,3,4,9-tetrahydro-1H-pyrido[3,4-b]indol-1-yl)-3,5-difluorophenyl)-2,6-diazaspiro[3.4]octan-6-yl)-2-oxoethyl)-2-(2,6-dioxopiperidin-3-yl)-6,7-dihydropyrrolo[3,4-f]isoindole-1,3(2H,5H)-dione], the “Traditional Western Degradation Potency” value is “A (“A”: <10 nM)”.
